Measured values taken from article PMC12389355, “Physiologically Based Pharmacokinetic Modeling to Assess Perpetrator and Victim Cytochrome P450 2C Induction Risk” (Pharmaceutics, 2025).
Read-outs that look alike come from different tables or passages of the source.

Legend:
CYP2C9 [1] = experiment: CYP2C9 mRNA induction in HTC model
CYP2C19 [2] = experiment: CYP2C19 mRNA induction in HTC model
CYP3A4 [3] = experiment: CYP3A4 mRNA induction in human hepatocyte triculture (HTC) model
CYP2C8 [4] = experiment: CYP2C8 mRNA induction in HTC model
CYP2B6 [5] = experiment: CYP2B6 mRNA induction in HTC model
CYP2C9 [6] = experiment: in vitro; details: human, probe diclofenac (4-hydroxy diclofenac formation)
CYP2C9 [7] = experiment: CYP2C9 enzyme activity induction in HTC model (diclofenac 4-hydroxylation)
CYP2B6 [8] = experiment: in vitro; details: human
CYP2C19 [9] = experiment: in vitro; details: human
CYP2C19 [10] = experiment: CYP2C19 enzyme activity induction in HTC model (omeprazole 5-hydroxylation)
CYP2C9 [11] = experiment: in vitro; details: human
CYP3A4 [12] = experiment: CYP3A4 enzyme activity induction in HTC model (midazolam 1-hydroxylation)
CYP2C8 [13] = experiment: in vitro; details: human
[14] = cited from earlier work
CYP3A4 [15] = details: cited from earlier work; for fm CYP3A4: victim drug, References of Tables 3 and 4 ([27]-[44])
CYP2C19 [16] = details: cited from earlier work
CYP2C8 [17] = system: CYP2C8; parameters: method as in References column of Tables 3 and 4 ([27]-[44]); details: victim drug; References of Tables 3 and 4 ([27]-[44]); cited from earlier work
CYP2B6 [18] = system: CYP2B6; parameters: method as in PMID 29802934; details: PHH spheroids; cited from earlier work
CYP2C8 [19] = system: CYP2C8; parameters: method as in PMID 29802934; details: PHH spheroids; cited from earlier work
CYP2C19 [20] = system: CYP2C19; parameters: method as in PMID 26658225; details: PHH spheroids, observed in two of the three donors; cited from earlier work
CYP2C9 [21] = details: cited from earlier work
CYP2B6 [22] = details: cited from earlier work
CYP1A2 = details: cited from earlier work
[23] = Donor 1, nominal concentrations, 96 h
[24] = victim drug after administration with rifampicin, References of Table 4 ([27]-[43]), DIDB
[25] = victim drug, References of Tables 3 and 4 ([27]-[44])

SMILES: CNC(=O)c1ccc(N2C(=S)N(c3cnc(C#N)c(C(F)(F)F)c3)C(=O)C23CCC3)cc1F [Apalutamide, apalutamide]
- EC50 (CYP2C9 [1]; Donor 2): 419 nM
- EC50 (CYP2C9 [1]; Donor 3): 474 nM
- EC50 (CYP2C19 [2]; Donor 2): 5220 nM
- EC50 (CYP2C19 [2]; Donor 3): 6040 nM
- EC50 (CYP2C8 [4]; Donor 2): 1220 nM
- EC50 (CYP2C8 [4]; Donor 3): 1260 nM
- EC50 (CYP2B6 [5]; Donor 2): 2980 nM
- EC50 (CYP2B6 [5]; Donor 3): 2960 nM
- EC50 at 96 h (CYP2C9 [6]): 13100 nM
- EC50 (CYP2C9 [7]; Donor 3): 23700 nM
- EC50 at 96 h (CYP2B6 [8]): 4440 nM
- EC50 at 96 h (CYP2C19 [9]): 4010 nM
- EC50 (CYP2C19 [10]; Donor 1): 455 nM
- EC50 (CYP2C19 [10]; Donor 2): 1030 nM
- EC50 (CYP2C19 [10]; Donor 3): 865 nM
- EC50 at 96 h (CYP2C9 [11]): 794 nM
- EC50 at 96 h (CYP2C8 [13]): 1680 nM

SMILES: CC(NC(C)(C)C)C(=O)c1cccc(Cl)c1 (centres unmarked) [Bupropion, bupropion]
- % AUC Reduction (Clinically Observed) [14, 24]: 67.2%

SMILES: NC(=O)N1c2ccccc2C=Cc2ccccc21 [Carbamazepine, carbamazepine]
- EC50 (CYP2C19 [2]; Donor 2): 186000 nM
- EC50 (CYP2C19 [2]; Donor 3): 182000 nM
- EC50 (CYP2C8 [4]; Donor 1): 35600 nM
- EC50 (CYP2C8 [4]; Donor 2): 20000 nM
- EC50 (CYP2C8 [4]; Donor 3): 40200 nM
- EC50 (CYP2B6 [5]; Donor 2): 41900 nM
- EC50 (CYP2B6 [5]; Donor 3): 59000 nM
- EC50 at 96 h (CYP2C9 [6]): 41400 nM
- EC50 at 96 h (CYP2B6 [8]): 46900 nM
- EC50 at 96 h (CYP2C19 [9]): 124000 nM
- EC50 (CYP2C19 [10]; Donor 1): 8140 nM
- EC50 (CYP2C19 [10]; Donor 2): 2050 nM
- EC50 (CYP2C19 [10]; Donor 3): 18000 nM
- EC50 at 96 h (CYP2C9 [11]): 9860 nM

SMILES: COc1ccc(Cl)cc1C(=O)NCCc1ccc(S(=O)(=O)NC(=O)NC2CCCCC2)cc1 [Glyburide, glyburide]
- % AUC Reduction (Clinically Observed) [14, 24]: 38.9%

SMILES: Cc1ncc2n1-c1ccc(Cl)cc1C(c1ccccc1F)=NC2 [Midazolam, midazolam]
- % AUC Reduction (Clinically Observed) ([14]; in vivo): 94.7%

SMILES: COc1ccc2[nH]c([S+]([O-])Cc3ncc(C)c(OC)c3C)nc2c1 (centres unmarked) [Omeprazole, omeprazole]
- fm CYP3A4 (CYP3A4 [15]): 0.32
- % AUC Reduction (Clinically Observed) [14, 24]: 86.1%
- fm CYP2C19 (CYP2C19 [16]; [25]): 0.68

SMILES: CCc1ccc(CCOc2ccc(CC3SC(=O)NC3=O)cc2)nc1 (centres unmarked) [Pioglitazone, pioglitazone]
- fm CYP3A4 (CYP3A4 [15]): 0.37
- % AUC Reduction (Clinically Observed) [14, 24]: 56.3%
- fm CYP2C8 (CYP2C8 [17]): 0.56

SMILES: CCOc1cc(CC(=O)N[C@@H](CC(C)C)c2ccccc2N2CCCCC2)ccc1C(=O)O [Repaglinide, repaglinide]
- fm CYP3A4 (CYP3A4 [15]): 0.74
- % AUC Reduction (Clinically Observed) [14, 24]: 57.5%
- fm CYP2C8 (CYP2C8 [17]): 0.26

SMILES: CO[C@H]1/C=C/O[C@@]2(C)Oc3c(C)c(O)c4c(O)c(c(/C=N/N5CCN(C)CC5)c(O)c4c3C2=O)NC(=O)/C(C)=C\C=C\[C@H](C)[C@H](O)[C@@H](C)[C@@H](O)[C@@H](C)[C@H](OC(C)=O)[C@@H]1C [Rifampicin, rifampicin]
- EC50 (CYP2C19 [2]; Donor 1): 1640 nM
- EC50 (CYP2C19 [2]; Donor 2): 803 nM
- EC50 (CYP2C19 [2]; Donor 3): 1470 nM
- EC50 (CYP2C8 [4]; Donor 2): 260 nM
- EC50 (CYP2C8 [4]; Donor 3): 307 nM
- induction of CYP2B6 mRNA levels (CYP2B6 [18]): 9 fold
- EC50 (CYP2B6 [5]; Donor 2): 530 nM
- EC50 (CYP2B6 [5]; Donor 3): 399 nM
- induction of CYP2C8 mRNA levels (CYP2C8 [19]): 12 fold
- CYP2C19 induction (CYP2C19 [20]): 8 fold
- EC50 at 96 h (CYP2B6 [8]; both): 399 to 530 nM
- EC50 at 96 h (CYP2B6 [8]): 415 nM
- EC50 at 96 h (CYP2C19 [9]; both): 803 to 1640 nM
- EC50 at 96 h (CYP2C8 [13]; both): 260 to 504 nM

SMILES: CC(=O)C[C@@H](c1ccccc1)c1c(O)c2ccccc2oc1=O [S-warfarin]
- fm via CYP3A4 (CYP3A4 [15]): 0.05
- fm via CYP2C9 (CYP2C9 [21]): 0.64
- fm via CYP2B6 (CYP2B6 [22]): 0.12

SMILES: CC(=O)CC(c1ccccc1)c1c(O)c2ccccc2oc1=O (centres unmarked) [Warfarin, warfarin]
- fm CYP2C9 (CYP2C9 [21]; [25]): 0.64

SMILES: COC(=O)[C@H](c1ccccc1Cl)N1CCc2sccc2C1 [clopidogrel]
- fm via CYP1A2 (CYP1A2): 0.02
- fm via CYP2B6 (CYP2B6 [22]): 0.06
- fm via CYP2C19 (CYP2C19 [16]): 0.19
